Measured values taken from EP2457593A1, “Cyclic RGD peptides of amino acids based on thiazoles or oxazoles as selective antagonists of the alpha-v beta-3 integrin” (Lykera Biomed S.A., priority 2010, dated 2012).

What was measured:
DAOY (αvβ3 /αvβ5) = assay: Cell adhesion inhibition, vitronectin (VN) as ligand, DAOY; assay type: cell-based, human; conditions: coating 0.5 µg/ml, read-out: Adhesion inhibition - EC-50
Protocol: (§1) Biological experiments. Cells were grown in DMEM High Glucose (GIBCO, Ref: 31966), supplemented with 10% FCS (GIBCO, 10106-169) at 37°C and 5% CO2. Cells were expanded when they reached 90% confluence. Non-tissue culture treated ELISA plates were coated at 4°C with the appropriate concentration of the ligand (depending on the cell line). The coating solution was discarded and the wells were blocked with blocking solution (1.5% BSA; 60 minutes at 37°C). The blocking solution was discarded by flicking and serial dilutions of the compounds were plated in duplicates. Immediately, harvested cells were plated at a given concentration (20000-25000 /well for HUVEC and DAOY and 50000 for HT-29) to the same plate. Plates were incubated for 60-90 min at 37°C to allow cell adhesion and spreading on the ligands. Plates were washed three times with PBS and 100 µl/well of Hexosaminidase Substrate solution was added. Plates were incubated at 37°C during 3 hours and then stop solution was added. Adsorption was read at OD 405nm.
(§2) Each plate contains positive and negative controls and peptides were tested as duplicates. Each assay has been repeated at least twice and the adhesion inhibition EC50 was calculated, when possible, using the Prism-4 software based on the sigmoidal dose-response (variable slope) equation.
(§3) The different RDG derivates based on thiazole-amino acid structures were tested for their biological activity such as inhibition of cell adhesion using three different cell systems and three integrin ligands for each cell line (vitronectin (VN), fibrinogen (FB) and fibronectin (FN) and collagen (COL)). The cell lines used for the study were: DAOY human […] cells and HUVEC human umbilical vein endothelial cells as primary cell culture, which overexpresses in both members, αvβ3 and αvβ5, of the αv-integrin family, and HT29 human colon adenocarcinoma, which overexpresses in both members, αvβ5 and αvβ6, of the αv-integrin family. […]

HT-29 (αvβ5) = assay: Cell adhesion inhibition, vitronectin (VN) as ligand, HT-29; assay type: cell-based, human; conditions: for EC50: VN ligand, HT-29, coating 4.0 µg/ml, read-out: Adhesion inhibition - EC-50; for blocking activity against αvβ5: HT29-VN cell system
Protocol: as §1, §2
(§4) The different RDG derivates based on thiazole-amino acid structures were tested for their biological activity such as inhibition of cell adhesion using three different cell systems and three integrin ligands for each cell line (vitronectin (VN), fibrinogen (FB) and fibronectin (FN) and collagen (COL)). The cell lines used for the study were: DAOY human […] cells and HUVEC human umbilical vein endothelial cells as primary cell culture, which overexpresses in both members, αvβ3 and αvβ5, of the αv-integrin family, and HT29 human colon adenocarcinoma, which overexpresses in both members, αvβ5 and αvβ6, of the αv-integrin family.
(§5) In the experiments using VN as integrin ligand, both HUVEC and DAOY cells use αvβ3 and αvβ5 to adhere to VN; while HT29 cells use only αvβ5 to adhere to VN. In contrast, in the experiments using FB as integrin ligands, both HUVEC and DAOY cells use αvβ3 to adhere to FB, and the experiments using FN and COL were to control that the compounds could no inhibit the independent cell adhesion.

HUVEC (αvβ3/αvβ5) = assay: Cell adhesion inhibition, vitronectin (VN) as ligand, HUVEC; assay type: cell-based, human; conditions: coating 0.75 µg/ml, read-out: Adhesion inhibition - EC-50
Protocol: as §1, §2, §4, §5

HUVEC cell line [1] = assay: Cell adhesion inhibition, fibronectin (FN) as ligand (αv-integrin independent control), HUVEC; assay type: cell-based, human
Protocol: (§6) Figure 1. […] A) Using vitronectin (VN) as ligand. B) Using fibrinogen (FB) as ligand. Figure 2. […] Figure 3. […] A) Using fibronectin (FN) as ligand. B) Using collagen (COL) as ligand.
as §1, with “Plates were washed three times with PBS and 100 µl/well of Hexosaminidase Substrate solution was added. Plates were incubated at 37°C during 3 hours and then stop solution was added.” left out
(§7) Each plate contains positive and negative controls and peptides were tested as duplicates. Each assay has been repeated at least twice and the adhesion inhibition EC50 was calculated, when possible, using the Prism-4 software based on the sigmoidal dose-response (variable slope) equation. […]

HUVEC cell line [2] = assay: Cell adhesion inhibition, collagen (COL) as ligand (αv-integrin independent control), HUVEC; assay type: cell-based, human
Protocol: as §6
as §1, with “Plates were washed three times with PBS and 100 µl/well of Hexosaminidase Substrate solution was added. Plates were incubated at 37°C during 3 hours and then stop solution was added.” left out
as §7

DAOY (αvβ3) = assay: Cell adhesion inhibition, fibrinogen (FB) as ligand, DAOY; assay type: cell-based, human; conditions: coating 5.0 µg/ml, read-out: Adhesion inhibition - EC-50
Protocol: as §1, §2, §3

HUVEC cell line [3] = assay: Inhibition of cell adhesion, first series of experiments, HUVEC cell line (ligand not specified); assay type: cell-based, human; conditions: for biological activity (inhibition of cell adhesion), in words: HUVEC cell line, first series of experiments
Protocol: as §1, §2, §4
In the first series of experiments compounds 1-5 were tested using HUVEC cell line showing that only compounds 4 and 5 were active.

HUVEC (αvβ3) = HUVEC (αvβ3) (Homo sapiens, UniProt P05106+P06756); assay: Cell adhesion inhibition, fibrinogen (FB) as ligand, HUVEC; assay type: cell-based; conditions: from adhesion of the HUVEC and DAOY cells to FB
Chain of HUVEC (αvβ3) (P06756 31-1048): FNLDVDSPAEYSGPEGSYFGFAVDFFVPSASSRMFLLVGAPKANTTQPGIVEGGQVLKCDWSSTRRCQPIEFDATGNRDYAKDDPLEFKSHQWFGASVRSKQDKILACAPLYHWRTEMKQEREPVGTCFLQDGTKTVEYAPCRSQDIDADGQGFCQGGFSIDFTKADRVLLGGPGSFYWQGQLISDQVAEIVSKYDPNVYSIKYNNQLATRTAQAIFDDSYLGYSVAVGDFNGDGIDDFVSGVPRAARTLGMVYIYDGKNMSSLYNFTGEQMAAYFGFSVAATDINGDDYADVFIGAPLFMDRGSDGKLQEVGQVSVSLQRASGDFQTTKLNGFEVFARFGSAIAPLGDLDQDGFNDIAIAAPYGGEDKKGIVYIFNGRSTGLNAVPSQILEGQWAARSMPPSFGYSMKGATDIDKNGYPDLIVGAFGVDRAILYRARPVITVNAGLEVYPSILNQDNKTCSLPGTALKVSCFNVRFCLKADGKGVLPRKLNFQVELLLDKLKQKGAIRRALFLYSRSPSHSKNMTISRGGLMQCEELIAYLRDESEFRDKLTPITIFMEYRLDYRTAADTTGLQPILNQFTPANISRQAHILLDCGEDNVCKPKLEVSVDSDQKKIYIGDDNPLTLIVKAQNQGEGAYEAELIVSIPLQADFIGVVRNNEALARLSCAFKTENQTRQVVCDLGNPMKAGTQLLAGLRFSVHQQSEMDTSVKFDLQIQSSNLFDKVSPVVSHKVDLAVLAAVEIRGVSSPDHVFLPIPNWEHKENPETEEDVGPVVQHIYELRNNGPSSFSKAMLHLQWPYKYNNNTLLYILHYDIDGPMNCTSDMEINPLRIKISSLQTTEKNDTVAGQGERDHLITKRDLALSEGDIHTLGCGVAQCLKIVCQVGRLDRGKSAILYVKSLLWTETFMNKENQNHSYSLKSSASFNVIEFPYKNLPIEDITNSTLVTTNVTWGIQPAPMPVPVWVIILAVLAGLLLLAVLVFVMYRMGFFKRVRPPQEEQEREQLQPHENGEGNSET
Chain of HUVEC (αvβ3) (P05106 27-788): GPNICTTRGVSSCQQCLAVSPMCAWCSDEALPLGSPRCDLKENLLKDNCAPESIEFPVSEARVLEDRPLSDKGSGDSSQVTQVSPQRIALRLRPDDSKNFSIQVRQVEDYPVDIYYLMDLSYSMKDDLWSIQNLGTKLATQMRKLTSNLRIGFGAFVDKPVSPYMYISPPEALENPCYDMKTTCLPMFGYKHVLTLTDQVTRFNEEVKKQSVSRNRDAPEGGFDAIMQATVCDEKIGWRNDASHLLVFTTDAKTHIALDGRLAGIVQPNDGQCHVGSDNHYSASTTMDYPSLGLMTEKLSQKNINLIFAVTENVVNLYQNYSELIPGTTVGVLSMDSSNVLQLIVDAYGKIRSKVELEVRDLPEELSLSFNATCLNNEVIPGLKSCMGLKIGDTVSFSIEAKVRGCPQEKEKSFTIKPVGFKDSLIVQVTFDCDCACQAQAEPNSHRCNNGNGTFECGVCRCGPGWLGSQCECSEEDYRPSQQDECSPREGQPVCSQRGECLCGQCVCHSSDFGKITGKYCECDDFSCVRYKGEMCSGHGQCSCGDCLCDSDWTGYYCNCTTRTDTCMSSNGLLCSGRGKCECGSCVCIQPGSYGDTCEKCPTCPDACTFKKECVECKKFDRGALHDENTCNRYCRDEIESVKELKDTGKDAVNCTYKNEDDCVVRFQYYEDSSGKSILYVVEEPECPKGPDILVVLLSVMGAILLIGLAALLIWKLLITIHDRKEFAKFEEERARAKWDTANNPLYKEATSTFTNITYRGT

| EC50 (DAOY (αvβ3 /αvβ5)) [µM] | EC50 (HT-29 (αvβ5)) [µM] | EC50 (DAOY (αvβ3)) [µM] | SMILES | EC50 (HUVEC (αvβ3/αvβ5)) [µM] | inhibit cell adhesion to αv-integrin independent cell adhesion (FN coating) (HUVEC cell line [1]) | inhibit cell adhesion to αv-integrin independent cell adhesion (COL coating) (HUVEC cell line [2]) | activity in all cell systems used in the study, in words (HUVEC cell line [3]; all cell systems used, compound 3 has values for HUVEC only) | blocking activity against αvβ5 (HT-29 (αvβ5)) | biological activity (inhibition of cell adhesion), in words (HUVEC cell line [3]) | selectivity for the αvβ3 integrin, in words (HUVEC (αvβ3)) |
| --- | --- | --- | --- | --- | --- | --- | --- | --- | --- | --- |
| 0.068 | 2.24 | 0.059 | CC(C)[C@H]1C(=O)N[C@@H](CCCNC(=N)N)C(=O)NCC(=O)N[C@@H](CC(=O)O)C(=O)N[C@H](Cc2ccccc2)C(=O)N1C [Cilengitide, reference compound] | 0.56 | none of the compounds, including the reference one (Cilengitide) would inhibit cell adhesion | none of the compounds, including the reference one (Cilengitide) would inhibit cell adhesion |  |  |  |  |
|  |  |  | N=C(N)NCCC[C@@H]1NC(=O)c2csc(n2)CNC(=O)[C@H](CC(=O)O)NC(=O)CNC1=O [Compound 3, Cyclo-[Arg-Gly-Asp-Thz1X-]] | 31.1 |  |  | inactive |  |  |  |
| 5.71 | 53.2 | 0.082 | N=C(N)NCCC[C@@H]1NC(=O)c2csc(n2)-c2csc(n2)CNC(=O)[C@H](CC(=O)O)NC(=O)CNC1=O [Compound 4, Cyclo-[Arg-Gly-Asp-Thz2X-]] | 7.46 |  |  |  | no blocking activity | active | selective antagonists of the αvβ3 integrin |
| 6.8 | 59.1 | 1.86 | N=C(N)NCCC[C@@H]1NC(=O)c2csc(n2)-c2csc(n2)-c2csc(n2)CNC(=O)[C@H](CC(=O)O)NC(=O)CNC1=O [Compound 5, Cyclo-[Arg-Gly-Asp-Thz3X-]] | 63.8 |  |  |  | no blocking activity | active | selective antagonists of the αvβ3 integrin |
